Where two headings read alike, the source gives them in different places. Each block holds one molecule with its values, some of them ahead of it.
Assays:
P-gp (ABCB1) = conditions: cited from earlier work
[1] = target: T1, human A3 adenosine receptor (Homo sapiens, UniProt P0DMS8); conditions: agonists; Tables S1 – S4; cited from earlier work
T1 sequence (P0DMS8 1-318): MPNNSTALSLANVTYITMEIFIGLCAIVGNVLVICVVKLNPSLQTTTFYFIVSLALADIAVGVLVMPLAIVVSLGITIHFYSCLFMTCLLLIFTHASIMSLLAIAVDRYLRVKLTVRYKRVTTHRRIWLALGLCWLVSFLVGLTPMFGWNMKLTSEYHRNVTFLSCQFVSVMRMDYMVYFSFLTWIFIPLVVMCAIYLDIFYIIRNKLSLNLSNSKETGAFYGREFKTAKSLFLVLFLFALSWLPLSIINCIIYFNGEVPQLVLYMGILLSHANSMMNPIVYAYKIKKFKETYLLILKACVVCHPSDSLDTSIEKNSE

human A1 receptor = conditions: cited from earlier work
[2] = target: mouse A3 adenosine receptor; conditions: read-out: A3 adenosine receptor affinity Ki; mouse homologue; cited from earlier work
human A2A receptor = conditions: cited from earlier work
ABCG2 [3] = target: T2, ABCG2 (Homo sapiens, UniProt Q9UNQ0)
T2 sequence (Q9UNQ0 1-655): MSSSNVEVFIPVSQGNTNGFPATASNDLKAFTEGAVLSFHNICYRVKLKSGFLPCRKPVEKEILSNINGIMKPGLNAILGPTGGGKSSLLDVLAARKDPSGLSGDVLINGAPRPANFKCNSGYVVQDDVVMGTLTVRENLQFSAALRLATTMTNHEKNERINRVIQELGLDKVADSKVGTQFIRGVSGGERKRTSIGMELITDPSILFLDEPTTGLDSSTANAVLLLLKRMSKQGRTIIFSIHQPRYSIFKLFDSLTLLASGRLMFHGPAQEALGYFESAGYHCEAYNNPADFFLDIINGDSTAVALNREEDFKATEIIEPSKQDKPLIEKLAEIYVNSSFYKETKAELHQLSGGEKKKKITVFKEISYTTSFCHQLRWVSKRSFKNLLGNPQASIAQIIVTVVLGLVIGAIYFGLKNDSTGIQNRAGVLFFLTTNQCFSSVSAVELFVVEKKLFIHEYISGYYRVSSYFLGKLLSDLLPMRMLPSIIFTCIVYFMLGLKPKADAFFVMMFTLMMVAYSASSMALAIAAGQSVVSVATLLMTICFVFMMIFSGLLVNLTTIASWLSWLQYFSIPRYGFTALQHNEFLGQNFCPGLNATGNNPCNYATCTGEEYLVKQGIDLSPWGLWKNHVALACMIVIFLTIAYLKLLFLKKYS

ABCG2 [4] = target: T2, ABCG2; test: ATPase activity of ABCG2, total membranes of High-Five insect cells
ABCG2 [5] = target: T2, ABCG2; test: in vitro; conditions: pH 6.8

SMILES: CNC(=O)[C@]12C[C@@H]1[C@@H](n1cnc3c(NCc4cccc(-n5cc(-c6ccc(F)c(F)c6)nn5)c4)nc(C#Cc4ccc(F)c(F)c4)nc31)[C@H](O)[C@@H]2O [Compound 17]
effect on ATPase activity of P-gp (P-gp (ABCB1)): partially inhibited the basal ATPase activity of P-gp | human A3 adenosine receptor affinity [1]: single digit nM affinity

SMILES: CCOC(=O)[C@]12C[C@@H]1[C@@H](n1ccc3c(NCCc4ccccc4)nc(C#Cc4ccccc4)nc31)[C@H](O)[C@@H]2O [Compound 60]
activity at human A1 receptor (human A1 receptor): inactive | Ki [2]: > 10 µM | activity at human A2A receptor (human A2A receptor): inactive

SMILES: CNC(=O)[C@]12C[C@@H]1[C@@H](n1cnc3c(NCc4cccc(-n5cc(-c6ccc(F)c(F)c6)nn5)c4)nc(C#Cc4cc(F)c(F)c(F)c4)nc31)[C@H](O)[C@@H]2O [Compound 20]
modulation of ABCG2 ATP hydrolysis (ABCG2 [3]): inhibited ATP hydrolysis at both concentrations

SMILES: CNC(=O)[C@]12C[C@@H]1[C@@H](n1cnc3c(NCc4cccc(Cl)c4)nc(C#Cc4ccc(Cl)s4)nc31)[C@H](O)[C@@H]2O [Compound 29]
modulation of ABCG2 ATP hydrolysis (ABCG2 [3]): stimulated ATP hydrolysis at multiple concentrations

ATPase activity of ABCG2 % Stimulation (upward arrow) (ABCG2 [4]; 2.5 μM, basal ATPase activity = 0%, mean ± SD, three experiments): ≥ 50%
SMILES: CNC(=O)[C@]12C[C@@H]1[C@@H](n1cnc3c(NCc4cccc(Cl)c4)nc(C#Cc4ccc(F)c(F)c4)nc31)[C@H](O)[C@@H]2O [Compound 5]
modulation of ABCG2 ATP hydrolysis (ABCG2 [4]): stimulated ATP hydrolysis at multiple concentrations | effect on ATPase activity of P-gp (P-gp (ABCB1)): stimulate the ATPase activity of P-gp | human A3 adenosine receptor affinity [1]: single digit nM affinity

ATPase activity of ABCG2 % Stimulation (upward arrow) (ABCG2 [3]; human, 20 min, 2.5 μM, pH 6.8): ≥ 50%
SMILES: CCOC(=O)[C@]12C[C@@H]1[C@@H](n1ccc3c(NCCCc4ccc(OC)c(O)c4)nc(C#Cc4ccccc4)nc31)[C@H](O)[C@@H]2O [Compound 63]

SMILES: CNC(=O)[C@]12C[C@@H]1[C@@H](n1cnc3c(NC)nc(C#Cc4ccc(Cl)s4)nc31)[C@H](O)[C@@H]2O [Compound 25]
modulation of ABCG2 ATP hydrolysis (ABCG2 [4]): stimulated ATP hydrolysis at 2.5 μM, but not 10 μM

inhibition at 20 min, 2.5 µM (ABCG2 [5]): ≥ 50%
SMILES: CNC(=O)[C@]12C[C@@H]1[C@@H](n1cnc3c(NCc4cccc(-n5cc(-c6ccc(F)c(F)c6)nn5)c4)nc(C#Cc4ccc(F)cc4)nc31)[C@H](O)[C@@H]2O [Compound 16]

SMILES: CNC(=O)[C@]12C[C@@H]1[C@@H](n1cnc3c(N[C@H]4C[C@@H]4c4ccc(F)c(F)c4)nc(C#Cc4cccc(F)c4)nc31)[C@H](O)[C@@H]2O [Compound 15]
modulation of ABCG2 ATP hydrolysis (ABCG2 [3]; human, 20 min, 2.5 μM, pH 6.8): stimulated ATP hydrolysis at 2.5 μM, but not 10 μM | human A3 adenosine receptor affinity [1]: single digit nM affinity

SMILES: CNC(=O)[C@H]1O[C@@H](n2cnc3c(NC)nc(C#Cc4ccc(Cl)s4)nc32)[C@H](O)[C@@H]1O [Compound 32]
effect on ATPase activity of P-gp (P-gp (ABCB1)): very weak at P-gp

SMILES: O[C@@H]1[C@H](O)[C@@H]2C[C@@H]2[C@H]1n1cnc2c(NCc3cccc(Cl)c3)nc(C#Cc3ccc(F)c(F)c3)nc21 [Compound 30]
increase of P-gp ATPase activity (P-gp (ABCB1); 2.5 μM): 116%

SMILES: COc1cc(CCNC2=NC(C#Cc3ccc(Cl)s3)=NC3=NC=NC32)ccc1O (centres unmarked) [Compound 37c]
activity at human A1 receptor (human A1 receptor; adenine series): inactive | activity at human A2A receptor (human A2A receptor; adenine series): inactive

modulation of ABCG2 ATP hydrolysis (ABCG2 [3]; human, 20 min, 2.5 μM, pH 6.8): inhibited only at 10 μM
SMILES: CNC(=O)[C@]12C[C@@H]1[C@@H](n1cnc3c(NCc4cccc(Cl)c4)nc(-n4cc(-c5ccc(F)c(F)c5)nn4)nc31)[C@H](O)[C@@H]2O [Compound 28]

SMILES: CNc1nc(C#Cc2ccc(Cl)s2)nc2c1ncn2[C@H]1[C@H](O)[C@H](O)[C@@]2(C(=O)Oc3ccccc3)C[C@H]12 [Compound 50]
modulation of ABCG2 ATP hydrolysis (ABCG2 [3]): stimulated ATP hydrolysis at multiple concentrations | human A3 adenosine receptor affinity [1]: single digit nM affinity

SMILES: CNC(=O)[C@]12C[C@@H]1[C@@H](n1cnc3c(NCc4cccc(Cl)c4)nc(C#Cc4cccc(Cl)c4)nc31)[C@H](O)[C@@H]2O [Compound 10]
modulation of ABCG2 ATP hydrolysis (ABCG2 [4]): stimulated ATP hydrolysis at 2.5 μM, but not 10 μM

SMILES: CNC(=O)[C@H]1O[C@@H](n2cnc3c(NCc4cccc(I)c4)nc(Cl)nc32)[C@H](O)[C@@H]1O [Compound 4, reference compound]
modulation of ABCG2 ATP hydrolysis (ABCG2 [3]): stimulated ATP hydrolysis at multiple concentrations

modulation of ABCG2 ATP hydrolysis (ABCG2 [3]; human, 20 min, 2.5 μM, pH 6.8): inhibited only at 10 μM
SMILES: CNC(=O)[C@]12C[C@@H]1[C@@H](n1cnc3c(NCc4cccc(-n5cc(-c6ccc(F)c(F)c6)nn5)c4)nc(C#Cc4ccc(C(F)(F)F)cc4)nc31)[C@H](O)[C@@H]2O [Compound 21]

SMILES: CNc1nc(C#Cc2ccc(Cl)s2)nc2c1ncn2[C@H]1[C@H](O)[C@H](O)[C@@]2(C(=O)OC)C[C@H]12 [Compound 27]
modulation of ABCG2 ATP hydrolysis (ABCG2 [3]): stimulated ATP hydrolysis at multiple concentrations

ATPase activity of ABCG2 % Stimulation (upward arrow) (ABCG2 [3]; human, 20 min, 2.5 μM, pH 6.8): ≥ 50%
SMILES: CCOC(=O)[C@]12C[C@@H]1[C@@H](n1ccc3c(NCCCc4ccc(OC)c(O)c4)nc(C#Cc4ccc(Cl)s4)nc31)[C@H](O)[C@@H]2O [Compound 64]

SMILES: CCCNc1nc(C#Cc2ccc(Cl)s2)nc2c1ncn2[C@H]1[C@H](O)[C@H](O)[C@@]2(C(=O)NC)C[C@H]12 [Compound 26]
modulation of ABCG2 ATP hydrolysis (ABCG2 [3]): stimulated ATP hydrolysis at multiple concentrations

SMILES: CNC(=O)[C@]12C[C@@H]1[C@@H](n1cnc3c(NCc4cccc(Cl)c4)nc(C#Cc4ccccc4)nc31)[C@H](O)[C@@H]2O [Compound 8]
modulation of ABCG2 ATP hydrolysis (ABCG2 [4]): stimulated ATP hydrolysis at 2.5 μM, but not 10 μM

SMILES: CCCNc1nc(C#Cc2ccc(Cl)s2)nc2c1ncn2[C@@H]1O[C@H](C(=O)NC)[C@@H](O)[C@H]1O [Compound 33]
modulation of ABCG2 ATP hydrolysis (ABCG2 [3]): stimulated ATP hydrolysis at multiple concentrations

SMILES: CCCOC(=O)[C@]12C[C@@H]1[C@@H](n1cnc3c(NC)nc(C#Cc4ccc(Cl)s4)nc31)[C@H](O)[C@@H]2O [Compound 45]
modulation of ABCG2 ATP hydrolysis (ABCG2 [3]): stimulated ATP hydrolysis at multiple concentrations | human A3 adenosine receptor affinity [1]: single digit nM affinity

modulation of ABCG2 ATP hydrolysis (ABCG2 [3]; human, 20 min, 2.5 μM, pH 6.8): inhibited only at 10 μM
SMILES: CNC(=O)[C@]12C[C@@H]1[C@@H](n1cnc3c(NCc4cccc(-n5cc(-c6ccc(F)c(F)c6)nn5)c4)nc(C#Cc4ccc(F)cc4F)nc31)[C@H](O)[C@@H]2O [Compound 19]

ATPase activity of ABCG2 % Stimulation (upward arrow) (ABCG2 [3]; human, 20 min, 2.5 μM, pH 6.8): ≥ 50%
SMILES: CCOC(=O)[C@]12C[C@@H]1[C@@H](n1cnc3c(NCCc4ccc(O)c(OC)c4)nc(C#Cc4ccc(Cl)s4)nc31)[C@H](O)[C@@H]2O [Compound 55]
